From patent US7081460B2, “Quinazoline and quinazoline-like compounds for the treatment of integrin-mediated disorders” (Ortho-McNeil Pharmaceutical, Inc., priority 2001, dated 2006)
pIC50: −log10 of the molar value. Structures can show the parent of a compound that is named as a salt. Where two headings read alike, the source gives them in different places.

Experiments:
GPIIb/IIIa = GPIIb/IIIa (Homo sapiens, UniProt P05106+P08514); test: In vitro solid phase purified glycoprotein IIb/IIIa binding assay (biotinylated fibrinogen)
In short: (§1)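 αvβ3 (1 μg/ml) immobilised in Tris buffer with Ca2+/Mg2+/Mn2+, compounds added 5 min before 5 nM vitronectin, 3 h at 37 °C; bound vitronectin detected by anti-vitronectin antibody/peroxidase ELISA at 490 nm. GPIIb/IIIa coated overnight at 4 °C, biotinylated fibrinogen with compounds 2–4 h RT in modified Tyrodes buffer, avidin-HRP/o-phenylenediamine read at 490 nm.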

Human αvβ3 = target: T1, Human αvβ3 (Homo sapiens, UniProt P05106+P06756); test: In vitro solid phase purified αvβ3 binding assay (vitronectin/αvβ3)
T1 construct: purchased Chemicon International Inc., Temecula, Calif
In short: as §1

[1] = RGD-affinity purified GPIIb/IIIa, biotinylated fibrinogen, read-out: GPIIb/IIIa Binding IC50
[2] = isolated human αvβ3, 5 nM vitronectin, read-out: αvβ3 Binding IC50

T1 sequence (P06756 31-889 limits assumed): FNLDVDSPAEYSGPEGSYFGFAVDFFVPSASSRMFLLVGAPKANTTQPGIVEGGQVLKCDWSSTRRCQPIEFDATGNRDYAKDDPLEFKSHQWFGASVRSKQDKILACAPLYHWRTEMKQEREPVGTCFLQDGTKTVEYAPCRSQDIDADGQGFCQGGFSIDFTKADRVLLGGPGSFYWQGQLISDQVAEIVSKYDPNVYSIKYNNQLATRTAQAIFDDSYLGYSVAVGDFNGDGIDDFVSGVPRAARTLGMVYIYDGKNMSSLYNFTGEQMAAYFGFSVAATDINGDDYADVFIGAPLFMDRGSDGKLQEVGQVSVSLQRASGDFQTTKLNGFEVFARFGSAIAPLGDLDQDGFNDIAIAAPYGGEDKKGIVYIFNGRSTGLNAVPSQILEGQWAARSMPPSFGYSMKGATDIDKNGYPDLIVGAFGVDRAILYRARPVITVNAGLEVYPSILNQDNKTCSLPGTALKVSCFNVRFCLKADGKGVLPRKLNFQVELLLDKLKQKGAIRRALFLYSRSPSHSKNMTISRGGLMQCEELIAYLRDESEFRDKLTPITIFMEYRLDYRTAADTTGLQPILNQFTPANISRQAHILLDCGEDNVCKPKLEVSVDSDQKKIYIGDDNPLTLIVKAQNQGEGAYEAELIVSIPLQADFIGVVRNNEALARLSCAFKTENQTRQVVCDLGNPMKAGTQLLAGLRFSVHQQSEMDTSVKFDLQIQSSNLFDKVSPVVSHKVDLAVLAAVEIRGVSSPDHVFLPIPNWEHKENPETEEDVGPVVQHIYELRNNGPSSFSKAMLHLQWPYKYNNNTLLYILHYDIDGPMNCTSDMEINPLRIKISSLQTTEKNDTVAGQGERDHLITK
T1 sequence (P06756 891-1048 partner limits assumed): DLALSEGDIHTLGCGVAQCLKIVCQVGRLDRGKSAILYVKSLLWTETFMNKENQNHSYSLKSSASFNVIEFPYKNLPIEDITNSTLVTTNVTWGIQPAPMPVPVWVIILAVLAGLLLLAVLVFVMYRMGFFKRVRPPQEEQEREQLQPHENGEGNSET
T1 sequence (P05106 27-788): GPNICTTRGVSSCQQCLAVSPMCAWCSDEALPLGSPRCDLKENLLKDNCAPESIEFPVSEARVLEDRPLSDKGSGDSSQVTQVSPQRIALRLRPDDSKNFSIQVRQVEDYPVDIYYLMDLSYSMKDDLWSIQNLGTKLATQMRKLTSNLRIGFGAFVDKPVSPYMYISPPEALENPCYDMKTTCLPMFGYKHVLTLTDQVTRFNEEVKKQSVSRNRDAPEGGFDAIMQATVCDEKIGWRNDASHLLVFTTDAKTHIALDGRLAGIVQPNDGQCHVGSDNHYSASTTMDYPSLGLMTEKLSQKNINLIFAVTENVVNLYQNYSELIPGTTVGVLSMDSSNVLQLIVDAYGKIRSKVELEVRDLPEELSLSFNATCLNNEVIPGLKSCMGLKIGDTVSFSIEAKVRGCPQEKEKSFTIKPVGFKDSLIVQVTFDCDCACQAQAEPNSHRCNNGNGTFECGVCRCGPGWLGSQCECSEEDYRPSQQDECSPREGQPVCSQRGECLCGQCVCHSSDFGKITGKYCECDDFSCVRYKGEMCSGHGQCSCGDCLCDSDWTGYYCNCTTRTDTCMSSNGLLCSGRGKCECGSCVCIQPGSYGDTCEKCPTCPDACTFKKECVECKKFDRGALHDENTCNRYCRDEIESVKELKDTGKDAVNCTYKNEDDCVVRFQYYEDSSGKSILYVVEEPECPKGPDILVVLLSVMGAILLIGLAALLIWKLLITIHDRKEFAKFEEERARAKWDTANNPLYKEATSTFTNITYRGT
GPIIb/IIIa, sequence (P08514 32-887 limits assumed): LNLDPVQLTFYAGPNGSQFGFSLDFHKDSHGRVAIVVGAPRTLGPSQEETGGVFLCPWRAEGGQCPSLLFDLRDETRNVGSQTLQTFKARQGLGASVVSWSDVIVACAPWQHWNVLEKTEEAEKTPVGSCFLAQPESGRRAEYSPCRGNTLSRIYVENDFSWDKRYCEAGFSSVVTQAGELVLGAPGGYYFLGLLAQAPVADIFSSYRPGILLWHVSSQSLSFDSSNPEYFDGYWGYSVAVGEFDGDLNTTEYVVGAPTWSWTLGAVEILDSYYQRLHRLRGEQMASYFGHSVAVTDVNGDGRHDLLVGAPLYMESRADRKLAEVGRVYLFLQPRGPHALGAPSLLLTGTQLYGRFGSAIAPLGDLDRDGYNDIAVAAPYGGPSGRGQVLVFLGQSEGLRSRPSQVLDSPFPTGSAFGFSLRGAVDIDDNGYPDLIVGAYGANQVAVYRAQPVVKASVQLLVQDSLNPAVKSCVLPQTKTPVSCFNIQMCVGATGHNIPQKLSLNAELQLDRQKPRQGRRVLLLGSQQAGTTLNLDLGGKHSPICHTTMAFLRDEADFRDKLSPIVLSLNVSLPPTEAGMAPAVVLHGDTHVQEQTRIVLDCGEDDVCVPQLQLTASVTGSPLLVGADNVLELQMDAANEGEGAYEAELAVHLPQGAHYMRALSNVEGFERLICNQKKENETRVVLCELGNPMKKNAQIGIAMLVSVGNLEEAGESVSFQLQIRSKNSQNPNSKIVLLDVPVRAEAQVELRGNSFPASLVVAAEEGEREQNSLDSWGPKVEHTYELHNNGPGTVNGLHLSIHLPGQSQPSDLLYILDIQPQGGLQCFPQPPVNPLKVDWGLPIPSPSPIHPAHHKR
GPIIb/IIIa, sequence (P08514 891-1039 partner limits assumed): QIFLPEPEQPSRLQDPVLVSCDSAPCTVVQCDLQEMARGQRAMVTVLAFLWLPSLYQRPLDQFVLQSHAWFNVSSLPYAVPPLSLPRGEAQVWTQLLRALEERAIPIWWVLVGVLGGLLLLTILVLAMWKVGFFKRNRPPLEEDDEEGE
GPIIb/IIIa, sequence (P05106 27-788): as the sequence (P05106 27-788) above

SMILES	pIC50 (GPIIb/IIIa; [1])	pIC50 (Human αvβ3; [2])	other results
Cc1c(C)c(C)c(S(=O)(=O)N[C@@H](Cc2nc3ccc(CCCNc4ccccn4)cc3c(=O)[nH]2)C(=O)O)c(C)c1C (as salt: HCl) [Compound 11, (αS)-3,4-dihydro-4-oxo-α-[[(2,3,4,5,6-pentamethylphenyl)sulfonyl]amino]-6-[3-(2-pyridinylamino)propyl]-2-quinazolinepropanoic Acid]			melting point: 218 to 221 °C
Cc1c(C)c(C)c(S(=O)(=O)N[C@@H](Cc2nc3ccc(/C=C/CNC4=NCCN4)cc3c(=O)[nH]2)C(=O)O)c(C)c1C (as salt: TFA) [Compound 1, 6-[(1E)-3-[(4,5-dihydro-1H-imidazol-2-yl)amino]-1-propenyl]-(αS)-3,4-dihydro-4-oxo-α-[[(2,3,4,5,6-pentamethylphenyl)sulfonyl]amino]-2-quinazolinepropanoic Acid]			melting point: 131 to 135 °C
Cc1c(C)c(C)c(S(=O)(=O)N[C@@H](Cc2nc3ccc(/C=C/CNc4ccccn4)cc3c(=O)[nH]2)C(=O)O)c(C)c1C (as salt: TFA) [Compound 10, (αS)-3,4-dihydro-4-oxo-α-[[(2,3,4,5,6-pentamethylphenyl)sulfonyl]amino]-6-[(1E)-3-(2-pyridinylamino)-1-propenyl]-2-quinazolinepropanoic Acid]			melting point: 148 to 151 °C
O=C(NC/C=C/c1ccc2nc(C[C@H](NS(=O)(=O)CCc3cccc4ccccc34)C(=O)O)[nH]c(=O)c2c1)NCc1ccccc1 [Compound 76, (αS)-3,4-dihydro-α-[[[2-(1-naphthalenyl)ethyl]sulfonyl]amino]-4-oxo-6-[(1E)-3-[[[(phenylmethyl)amino]carbonyl]amino]-1-propenyl]-2-quinazolinepropanoic acid]	4.35	< 6.30	
COc1ccc(OC(=O)N[C@@H](Cc2nc3ccc(/C=C/CNC(=O)NCc4ccccc4)cc3c(=O)[nH]2)C(=O)O)cc1 [Compound 77, (αS)-3,4-dihydro-α-[[(4-methoxyphenoxy)carbonyl]amino]-4-oxo-6-[(1E)-3-[[[(phenylmethyl)amino]carbonyl]amino]-1-propenyl]-2-quinazolinepropanoic acid]			pIC50 (GPIIb/IIIa): 4.34; pIC50 (Human αvβ3): < 6.30
Cn1c(C(CC(=O)O)c2ccccc2)nc2ccc(C=CCNC3=NCCN3)cc2c1=O [Compound 78, (βR,S)-3,4-dihydro-3-methyl-4-oxo-β-phenyl-6-[(1E)-3-[(4,5-dihydro-1H-imidazol-2-yl)amino]-1-propenyl]-2-quinazolinepropanoic acid]	4.26	5.27	
C/C(=C\NC(=O)NC1CCCCC1)c1ccc2nc(C[C@H](NS(=O)(=O)c3c(C)c(C)c(C)c(C)c3C)C(=O)O)[nH]c(=O)c2c1 [Compound 79, 6-[(E)-2-[[(cyclohexylamino)carbonyl]amino]-1-methylethenyl]-(αS)-3,4-dihydro-4-oxo-α-[[(2,3,4,5,6-pentamethylphenyl)sulfonyl]amino]-2-quinazolinepropanoic acid]	5.14	< 6.30	
O=C(O)CCc1nc2ccc(/C=C/CNc3ccccn3)cc2c(=O)n1Cc1ccccc1 [Compound 82, 3,4-dihydro-4-oxo-3-(phenylmethyl)-6-[(1E)-3-(2-pyridinylamino)-1-propenyl]-2-quinazolinepropanoic acid]	< 4.30	< 5.30	

Now from value to compound, other results behind:

pIC50 (GPIIb/IIIa; [1])	pIC50 (Human αvβ3; [2])	SMILES	other results
5.89	5.27	Cc1c(C)c(C)c(S(=O)(=O)N[C@@H](Cc2nc3ccc(/C=C/CNC4=NCCCCC4)cc3c(=O)[nH]2)C(=O)O)c(C)c1C [Compound 74, (αS)-3,4-dihydro-4-oxo-α-[[(2,3,4,5,6-pentamethylphenyl)sulfonyl]amino]-6-[(1E)-3-[(3,4,5,6-tetrahydro-2H-azepin-7-yl)amino]-1-propenyl]-2-quinazolinepropanoic acid]	
5.31	6.21	Cc1c(C)c(C)c(S(=O)(=O)N[C@@H](Cc2nc3ccc(/C=C/CNC(=O)NC4CCCCC4)cc3c(=O)[nH]2)C(=O)O)c(C)c1C [Compound 75, 6-[(1E)-3-[[(cyclohexylamino)carbonyl]amino]-1-propenyl]-(αS)-3,4-dihydro-4-oxo-α-[[(2,3,4,5,6-pentamethylphenyl)sulfonyl]amino]-2-quinazolinepropanoic acid]	
5.15	< 5.30	Cc1coc(NC/C=C/c2ccc3nc(C[C@H](NS(=O)(=O)c4c(C)c(C)c(C)c(C)c4C)C(=O)O)[nH]c(=O)c3c2)n1 [Compound 81, (αS)-3,4-dihydro-6-[(1E)-3-[(4-methyl-2-oxazolyl)amino]-1-propenyl]-4-oxo-α-[[(2,3,4,5,6-pentamethylphenyl)sulfonyl]amino]-2-quinazolinepropanoic acid]	
